Measured values reported in the CheMixHub drug solubility set.

Assay: xn = mol fraction of the nth substance listed, in the solute-free solvent

CC(N)C(=O)O (stereo not drawn) + O + CO
solubility (g/100 g solution)
Details | x2 = 0.1 | x2 = 0.2 | x2 = 0.3 | x2 = 0.4 | x2 = 0.5 | x2 = 0.6 | x2 = 0.7 | x2 = 0.8 | x2 = 0.9
283.15 K | 0.123 | 0.167 | 0.315 | 0.44 | 0.705 | 1.21 | 1.99 | 3.46 | 6.52
293.15 K | 0.142 | 0.222 | 0.377 | 0.571 | 0.899 | 1.53 | 2.53 | 4.26 | 7.7
303.15 K | 0.159 | 0.281 | 0.434 | 0.667 | 1.11 | 1.88 | 3.07 | 5.17 | 8.92
313.15 K | 0.178 | 0.331 | 0.492 | 0.816 | 1.39 | 2.35 | 3.85 | 6.26 | 10.4
323.15 K | 0.193 | 0.424 | 0.627 | 1.03 | 1.77 | 2.95 | 4.69 | 7.21 | 11.9

Nc1nccnc1Cl + OCCO + O
solubility (g/100 g solution)
Details | 278.15 K | 283.15 K | 288.15 K | 293.15 K | 298.15 K | 303.15 K | 308.15 K | 313.15 K | 318.15 K | 323.15 K
x2 = 0.03125 | 0.0244 | 0.0327 | 0.0431 | 0.0542 | 0.0663 | 0.0791 | 0.0925 | 0.108 | 0.123 | 0.139
x2 = 0.06767 | 0.0337 | 0.045 | 0.0589 | 0.0739 | 0.0903 | 0.108 | 0.126 | 0.147 | 0.167 | 0.189
x2 = 0.1107 | 0.0487 | 0.0645 | 0.0838 | 0.105 | 0.128 | 0.153 | 0.178 | 0.208 | 0.236 | 0.267
x2 = 0.1622 | 0.0695 | 0.0914 | 0.118 | 0.147 | 0.179 | 0.213 | 0.25 | 0.29 | 0.33 | 0.372
x2 = 0.225 | 0.09 | 0.119 | 0.153 | 0.192 | 0.235 | 0.28 | 0.328 | 0.382 | 0.435 | 0.491
x2 = 0.3034 | 0.113 | 0.148 | 0.19 | 0.239 | 0.291 | 0.347 | 0.408 | 0.474 | 0.541 | 0.61
x2 = 0.4038 | 0.13 | 0.17 | 0.218 | 0.273 | 0.334 | 0.399 | 0.469 | 0.546 | 0.625 | 0.705
x2 = 0.5373 | 0.139 | 0.182 | 0.232 | 0.292 | 0.357 | 0.427 | 0.505 | 0.589 | 0.676 | 0.764
x2 = 0.7232 | 0.142 | 0.182 | 0.235 | 0.297 | 0.364 | 0.438 | 0.519 | 0.607 | 0.699 | 0.792

O=C(O)CC(O)C(=O)O (stereo not drawn) + C1CCOC1 + CC#N
solubility (g/100 g solution)
Details | 278.15 K | 283.15 K | 288.15 K | 293.15 K | 298.15 K | 303.15 K | 308.15 K | 313.15 K | 318.15 K | 323.15 K
x2 = 0.1246 | 19.5 | 21.2 | 23.2 | 25.3 | 26.9 | 29.2 | 31.6 | 34.1 | 36.6 | 39.6
x2 = 0.1961 | 27.1 | 28.6 | 30.5 | 32.5 | 34.7 | 37.1 | 39.2 | 41.7 | 44.3 | 47
x2 = 0.2751 | 29.8 | 32 | 34 | 36 | 38 | 40.2 | 42.3 | 45 | 47.2 | 49.9
x2 = 0.3628 | 33.2 | 34.9 | 36.9 | 38.9 | 40.9 | 43 | 45.1 | 47.7 | 49.9 | 52.5
x2 = 0.4606 | 34.6 | 36 | 37.8 | 39.7 | 41.5 | 43.5 | 45.9 | 48.1 | 50.5 | 53.4
x2 = 0.5705 | 35.7 | 37.3 | 39.1 | 41.1 | 43.2 | 45.5 | 47.8 | 50.2 | 52.9 | 55.6
x2 = 0.6949 | 37.8 | 39 | 40.6 | 42.3 | 44.3 | 46 | 48.3 | 50.3 | 52.7 | 55.5

CC(N)C(=O)O (stereo not drawn) + O + CC(C)=O
solubility (g/100 g solution)
Details | x2 = 0.1 | x2 = 0.2 | x2 = 0.3 | x2 = 0.4 | x2 = 0.5 | x2 = 0.6 | x2 = 0.7 | x2 = 0.8 | x2 = 0.9
283.15 K | 0.0237 | 0.0301 | 0.047 | 0.0557 | 0.0712 | 0.135 | 0.382 | 1.03 | 3.44
293.15 K | 0.0407 | 0.0463 | 0.0511 | 0.0648 | 0.0791 | 0.17 | 0.457 | 1.34 | 4.17
303.15 K | 0.047 | 0.053 | 0.0603 | 0.0794 | 0.0969 | 0.22 | 0.611 | 1.73 | 5.02
313.15 K | 0.0547 | 0.0607 | 0.0696 | 0.0949 | 0.128 | 0.309 | 0.794 | 2.22 | 6.57
323.15 K | 0.0629 | 0.0786 | 0.0878 | 0.138 | 0.193 | 0.484 | 1.14 | 3.18 | 8.13

CC(CCc1ccccc1)NCC(O)c1ccc(O)c(C(N)=O)c1.Cl (stereo not drawn) + CO + CC#N
solubility (g/100 g solution)
Details | 288.15 K | 293.15 K | 298.15 K | 303.15 K | 308.15 K | 313.15 K | 318.15 K | 323.15 K | 328.15 K
x2 = 0.2426 | 0.0461 | 0.0674 | 0.0984 | 0.137 | 0.19 | 0.268 | 0.388 | 0.533 | 0.751
x2 = 0.3544 | 0.126 | 0.167 | 0.222 | 0.282 | 0.389 | 0.49 | 0.639 | 0.847 | 1.1
x2 = 0.4606 | 0.172 | 0.234 | 0.323 | 0.436 | 0.58 | 0.766 | 1.03 | 1.38 | 1.81
x2 = 0.5616 | 0.411 | 0.533 | 0.674 | 0.884 | 1.1 | 1.4 | 1.74 | 2.17 | 2.71
x2 = 0.6577 | 0.787 | 0.998 | 1.23 | 1.54 | 1.92 | 2.35 | 2.89 | 3.46 | 4.2
x2 = 0.7493 | 1.73 | 2.02 | 2.44 | 2.83 | 3.37 | 3.94 | 4.42 | 5.29 | 6.03
x2 = 0.8367 | 2.23 | 2.77 | 3.37 | 4.11 | 5.04 | 6.01 | 7.18 | 8.54 | 10.1
x2 = 0.9202 | 4.34 | 5.22 | 6.18 | 7.32 | 8.68 | 10.1 | 11.7 | 13.5 | 15.6

CC(C)OC(=O)C(C)NP(=O)(OCC1OC(n2ccc(=O)[nH]c2=O)C(C)(F)C1O)Oc1ccccc1 (stereo not drawn) + CCO + O
solubility (g/100 g solution)
Details | 278.15 K | 283.15 K | 288.15 K | 293.15 K | 298.15 K | 303.15 K | 308.15 K | 313.15 K | 318.15 K
x2 = 0.04165 | 0.327 | 0.484 | 0.653 | 0.882 | 1.17 | 1.57 | 2.08 | 2.71 | 3.42
x2 = 0.08908 | 1.42 | 2.02 | 2.65 | 3.46 | 4.44 | 5.7 | 7.2 | 9.04 | 10.9
x2 = 0.1436 | 3.58 | 4.78 | 6.12 | 7.78 | 9.72 | 12.1 | 14.7 | 17.7 | 21
x2 = 0.2068 | 5.74 | 7.67 | 9.66 | 12 | 14.8 | 17.8 | 21.3 | 25.1 | 29
x2 = 0.2812 | 7.44 | 9.76 | 12.2 | 14.9 | 18.1 | 21.6 | 25.5 | 29.7 | 33.9
x2 = 0.3698 | 9.07 | 11.6 | 14.4 | 17.3 | 20.7 | 24.9 | 29 | 33.2 | 37.7
x2 = 0.4772 | 11 | 13.7 | 16.6 | 20.2 | 24.2 | 28.3 | 32.5 | 36.8 | 41.3
x2 = 0.6101 | 13.9 | 17 | 20.8 | 24.3 | 28.5 | 32.3 | 37.2 | 41.6 | 46.3
x2 = 0.7788 | 17.6 | 20.9 | 24.6 | 28.8 | 33.3 | 37.8 | 42.4 | 47 | 51.6

Cl.N=C(N)N + CO + CCCO
solubility (g/100 g solution)
Details | 278.15 K | 283.15 K | 288.15 K | 293.15 K | 298.15 K | 303.15 K | 308.15 K | 313.15 K | 318.15 K | 323.15 K
x2 = 0.1726 | 9.26 | 10.3 | 11.5 | 12.6 | 13.3 | 14.4 | 15.6 | 17 | 18.2 | 19.9
x2 = 0.4458 | 15.1 | 16.1 | 17.4 | 18.8 | 20.6 | 22 | 23.4 | 25.3 | 26.3 | 28.2
x2 = 0.6523 | 22.2 | 23.4 | 24.9 | 26.3 | 27.8 | 29.2 | 30.7 | 32.4 | 34.1 | 35.6
x2 = 0.8138 | 28.3 | 29.7 | 31.4 | 33.1 | 34.5 | 36.2 | 37.6 | 39.5 | 40.9 | 42.3
x2 = 0.9441 | 33.4 | 35.1 | 36.8 | 38.3 | 40.2 | 42.1 | 43.6 | 45.5 | 47.1 | 48.8

COc1cc2c(cc1OC)-c1cc3ccc(OC)c(OC)c3c[n+]1CC2.[Cl-] + OCCO + O
solubility (g/100 g solution)
Details | 283.15 K | 288.15 K | 293.15 K | 298.15 K | 303.15 K | 308.15 K | 313.15 K | 318.15 K | 323.15 K | 328.15 K
x2 = 0.03125 | 1.2 | 1.46 | 1.83 | 2.28 | 2.8 | 3.39 | 4.08 | 4.86 | 5.75 | 6.75
x2 = 0.06767 | 1.25 | 1.51 | 1.89 | 2.35 | 2.88 | 3.48 | 4.19 | 4.98 | 5.89 | 6.91
x2 = 0.1107 | 1.33 | 1.6 | 1.99 | 2.47 | 3.02 | 3.65 | 4.37 | 5.2 | 6.13 | 7.19
x2 = 0.1622 | 1.41 | 1.69 | 2.09 | 2.58 | 3.15 | 3.8 | 4.55 | 5.4 | 6.36 | 7.45
x2 = 0.225 | 1.47 | 1.78 | 2.23 | 2.74 | 3.31 | 3.98 | 4.71 | 5.6 | 6.54 | 7.6
x2 = 0.3034 | 1.49 | 1.82 | 2.23 | 2.74 | 3.27 | 3.96 | 4.69 | 5.57 | 6.5 | 7.55
x2 = 0.4038 | 1.45 | 1.79 | 2.16 | 2.64 | 3.18 | 3.77 | 4.46 | 5.28 | 6.2 | 7.26
x2 = 0.5373 | 1.36 | 1.65 | 2.01 | 2.43 | 2.92 | 3.5 | 4.22 | 4.93 | 5.81 | 6.75
x2 = 0.7232 | 1.23 | 1.46 | 1.79 | 2.17 | 2.63 | 3.15 | 3.76 | 4.44 | 5.21 | 6.07
